According to PubChem BioAssay AID2060892 (Molecular Pharmacology Branch, DTP, NCI, 2025):

System: HOP-62 complex spheroids with HUVEC/MSC, viability
Experiment: Anticancer human tumor HOP-62 cell line growth inhibition [RAS];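 further: spheroids exposed to agents for seven days before readout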;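 on viability, T/C: 100% = DMSO vehicle control viability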
Details: for IC50: curve of first compound; for viability, T/C: stronger effect = lower value
In short: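 Tumour cells grown as complex spheroids with HUVEC endothelial cells and mesenchymal stem cells, treated with RAS pathway inhibitor combinations. Each agent spans half-log steps from near clinical Cmax, or 10 microM where Cmax is unknown.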

[1] = second compound 0.0316 µM, first compound 0.0316 µM
[2] = second compound 0.0316 µM, first compound 0.1 µM
[3] = second compound 0.0316 µM, first compound 0.316 µM
[4] = second compound 0.0316 µM, first compound 1 µM
[5] = second compound 0.0316 µM, first compound 3.16 µM
[6] = second compound 0.0316 µM, first compound 10 µM
[7] = second compound 0.1 µM, first compound 0.0316 µM
[8] = second compound 0.1 µM, first compound 0.1 µM
[9] = second compound 0.1 µM, first compound 0.316 µM
[10] = second compound 0.1 µM, first compound 1 µM
[11] = second compound 0.1 µM, first compound 3.16 µM
[12] = second compound 0.1 µM, first compound 10 µM
[13] = second compound 0.316 µM, first compound 0.0316 µM
[14] = second compound 0.316 µM, first compound 0.1 µM
[15] = second compound 0.316 µM, first compound 0.316 µM
[16] = second compound 0.316 µM, first compound 1 µM
[17] = second compound 0.316 µM, first compound 3.16 µM
[18] = second compound 0.316 µM, first compound 10 µM
[19] = second compound 1 µM, first compound 0.0316 µM
[20] = second compound 1 µM, first compound 0.1 µM
[21] = second compound 1 µM, first compound 0.316 µM
[22] = second compound 1 µM, first compound 1 µM
[23] = second compound 1 µM, first compound 3.16 µM
[24] = second compound 1 µM, first compound 10 µM
[25] = second compound 3.16 µM, first compound 0.0316 µM
[26] = second compound 3.16 µM, first compound 0.1 µM
[27] = second compound 3.16 µM, first compound 0.316 µM
[28] = second compound 3.16 µM, first compound 1 µM
[29] = second compound 3.16 µM, first compound 3.16 µM
[30] = second compound 3.16 µM, first compound 10 µM
[31] = second compound 10 µM, first compound 0.0316 µM
[32] = second compound 10 µM, first compound 0.1 µM
[33] = second compound 10 µM, first compound 0.316 µM
[34] = second compound 10 µM, first compound 1 µM
[35] = second compound 10 µM, first compound 3.16 µM
[36] = second compound 10 µM, first compound 10 µM

CC(=O)OC12COC1CC(O)C1(C)C(=O)C(O)C3=C(C)C(OC(=O)C(O)C(NC(=O)OC(C)(C)C)c4ccccc4)CC(O)(C(OC(=O)c4ccccc4)C21)C3(C)C (stereo unspecified) + C#Cc1c(F)ccc2cc(O)cc(-c3ncc4c(N5CC6CCC(C5)N6)nc(OCC56CCCN5CC(F)C6)nc4c3F)c12 was tested, and the IC50 (second compound 0.0316 µM) was under 31.6 nM, the IC50 (second compound 0.1 µM) was under 31.6 nM and the IC50 (second compound 0.316 µM) was under 31.6 nM. The IC50 (second compound 1 µM) was under 31.6 nM, the IC50 (second compound 3.16 µM) was under 31.6 nM and the IC50 (second compound 10 µM) was under 31.6 nM. The viability, T/C [1] was 11.7%, the viability, T/C [2] was 13.2% and the viability, T/C [3] was 14.1%. For the same compound, the viability, T/C [4] was 19.5%, the viability, T/C [5] was 19.5% and the viability, T/C [6] was 26.5%. The viability, T/C [7] was 14.5%, the viability, T/C [8] was 13.9% and the viability, T/C [9] was 17.6%. For the same compound, the viability, T/C [10] was 17.7%, the viability, T/C [11] was 18.7% and the viability, T/C [12] was 27.1%. The viability, T/C [13] was 12%, the viability, T/C [14] was 12.8% and the viability, T/C [15] was 16.6%. The viability, T/C [16] was 13.6%, the viability, T/C [17] was 18.4% and the viability, T/C [18] was 23.5%. For the same compound, the viability, T/C [19] was 14.7%, the viability, T/C [20] was 10.3% and the viability, T/C [21] was 13.1%. For the same compound, the viability, T/C [22] was 11.6%, the viability, T/C [23] was 17.1% and the viability, T/C [24] was 15.2%. The viability, T/C [25] was 9.36%, the viability, T/C [26] was 13.4% and the viability, T/C [27] was 13.2%. The viability, T/C [28] was 14%, the viability, T/C [29] was 17.8% and the viability, T/C [30] was 17.2%. The viability, T/C [31] was 13.1%, the viability, T/C [32] was 12% and the viability, T/C [33] was 13.8%. It also gave a viability, T/C [34] of 13.7%, a viability, T/C [35] of 14.8% and a viability, T/C [36] of 21.3%.

NC1c2ccccc2OC12CCN(c1cnc3c(N4CCCc5ncccc54)n[nH]c3n1)CC2 (stereo unspecified) + C#Cc1c(F)ccc2cc(O)cc(-c3ncc4c(N5CC6CCC(C5)N6)nc(OCC56CCCN5CC(F)C6)nc4c3F)c12 showed an IC50 (second compound 0.0316 µM) of 1820 nM, an IC50 (second compound 0.1 µM) of 772 nM and an IC50 (second compound 0.316 µM) of 330 nM. For the same compound, the IC50 (second compound 1 µM) was 71.1 nM, the IC50 (second compound 3.16 µM) was under 31.6 nM and the IC50 (second compound 10 µM) was under 31.6 nM. It also gave a viability, T/C [1] of 103%, a viability, T/C [2] of 80.8% and a viability, T/C [3] of 73.7%. The viability, T/C [4] was 57.2%, the viability, T/C [5] was 45.7% and the viability, T/C [6] was 26.6%. The viability, T/C [7] was 92.4%, the viability, T/C [8] was 91.4% and the viability, T/C [9] was 61.5%. The viability, T/C [10] was 49.9%, the viability, T/C [11] was 28.6% and the viability, T/C [12] was 27.1%. The viability, T/C [13] was 90.9%, the viability, T/C [14] was 76.7% and the viability, T/C [15] was 49.8%. The viability, T/C [16] was 29.9%, the viability, T/C [17] was 22.3% and the viability, T/C [18] was 15.1%. It also gave a viability, T/C [19] of 60.2%, a viability, T/C [20] of 45.7% and a viability, T/C [21] of 29.7%. It also gave a viability, T/C [22] of 19.3%, a viability, T/C [23] of 13.8% and a viability, T/C [24] of 12.7%. For the same compound, the viability, T/C [25] was 40.9%, the viability, T/C [26] was 20.9% and the viability, T/C [27] was 15.6%. The viability, T/C [28] was 11.8%, the viability, T/C [29] was 10.8% and the viability, T/C [30] was 12.2%. For the same compound, the viability, T/C [31] was 16.2%, the viability, T/C [32] was 11% and the viability, T/C [33] was 7.6%. For the same compound, the viability, T/C [34] was 8.99%, the viability, T/C [35] was 8.52% and the viability, T/C [36] was 17.5%.

In the case of Nc1ccn(C2OC(CO)C(O)C2(F)F)c(=O)n1 (stereo unspecified) + C#Cc1c(F)ccc2cc(O)cc(-c3ncc4c(N5CC6CCC(C5)N6)nc(OCC56CCCN5CC(F)C6)nc4c3F)c12, the IC50 (second compound 0.0316 µM) is reported as 6.38 nM, the IC50 (second compound 0.1 µM) is reported as 5.77 nM and the IC50 (second compound 0.316 µM) is reported as 5.94 nM. For the same compound, the IC50 (second compound 1 µM) was 5.32 nM, the IC50 (second compound 3.16 µM) was 4.58 nM and the IC50 (second compound 10 µM) was under 3.16 nM. For the same compound, the viability, T/C (second compound 0.0316 µM, first compound 0.00316 µM) was 107%, the viability, T/C (second compound 0.0316 µM, first compound 0.01 µM) was 13.4% and the viability, T/C [1] was 5.94%. The viability, T/C [2] was 5.61%, the viability, T/C [3] was 4.99% and the viability, T/C [4] was 6.52%. The viability, T/C (second compound 0.1 µM, first compound 0.00316 µM) was 92.4%, the viability, T/C (second compound 0.1 µM, first compound 0.01 µM) was 11.2% and the viability, T/C [7] was 8.15%. The viability, T/C [8] was 4.9%, the viability, T/C [9] was 5.5% and the viability, T/C [10] was 6.42%. For the same compound, the viability, T/C (second compound 0.316 µM, first compound 0.00316 µM) was 97.4%, the viability, T/C (second compound 0.316 µM, first compound 0.01 µM) was 10.9% and the viability, T/C [13] was 4.88%. It also gave a viability, T/C [14] of 4.68%, a viability, T/C [15] of 4.42% and a viability, T/C [16] of 4.04%. It also gave a viability, T/C (second compound 1 µM, first compound 0.00316 µM) of 83.7%, a viability, T/C (second compound 1 µM, first compound 0.01 µM) of 9.09% and a viability, T/C [19] of 4.77%. It also gave a viability, T/C [20] of 4.48%, a viability, T/C [21] of 3.43% and a viability, T/C [22] of 3.47%. It also gave a viability, T/C (second compound 3.16 µM, first compound 0.00316 µM) of 67.8%, a viability, T/C (second compound 3.16 µM, first compound 0.01 µM) of 12.5% and a viability, T/C [25] of 5.06%. The viability, T/C [26] was 4.31%, the viability, T/C [27] was 5.01% and the viability, T/C [28] was 4.23%. It also gave a viability, T/C (second compound 10 µM, first compound 0.00316 µM) of 39.5%, a viability, T/C (second compound 10 µM, first compound 0.01 µM) of 12.1% and a viability, T/C [31] of 8.09%. It also gave a viability, T/C [32] of 6.92%, a viability, T/C [33] of 8.08% and a viability, T/C [34] of 6.83%.
